Columns and labels:
[1] = target: T1, PAF receptor (human platelet membrane) (Homo sapiens, UniProt P25105); assay: Assay A: Human Platelet Receptor Binding (inhibition of specific [^3 H]PAF binding to human platelet membrane preparation); conditions: for IC50: human platelet membranes, 0.75 nM [^3 H]PAF, 30 minutes at 24° C., pH 7.4
T1 construct: The platelets were broken by freezing in a dry ice-ethanol bath; tissue Lifesource, Inc. (Glenview, Ill.); host or cells: human packed platelets (membrane preparation)
Description: Compounds of the invention were evaluated for their ability to inhibit specific binding of [^3 H]PAF to human platelet membrane preparation. Human packed platelets were obtained from Lifesource, Inc. (Glenview, Ill.) and washed 3 times with 10 mM Trizma pH 7.0, 2 mM EDTA (dipotassium salt), 150 mM KCL and then once with 10 mM Trizma 7.4, 20 mM CaCL2. The platelets were broken by freezing in a dry ice-ethanol bath, followed by thawing in 24° C. water baths. The preparation was centrifugation (40,000 x g, 20 minutes, 4° C.) and the pellet resuspended in 10 mM Trizma 7.4, 20 mM CaCL2, 5 mg/ml human albumin. Protein concentration in the platelet membrane preparation was determined by the Lowry method [ref]. Aliquots of the membrane preparation were stored at -70° C. Each preparation was characterized for PAF receptor number and dissociation constant (Kd). In binding assays 5 μl of test compound, solubilzed in DMSO, was added to polypropylene tubes along with 0.75 nM [^3 H]PAF and 200 mcl [0.075 nM] of membranes and 95 μl 10 mM Trizma 7.4, 20 mM CaCL2, 5 mg/ml human albumin. Tubes were incubated for 30 minutes at 24° C. The incubation was terminated by adding 4 ml of ice-cold 10 mM Trizma DH 7.4, 20 mM CaCL2 and 20 mg/ml BSA prior to vacuum filtration using Whatman GF/C filters. Filters were prepared and counted for a scintillation counter. All DPM values were corrected for background and isotope decay. Triplicate determinations for single doses were averaged. The amount of non-specific binding was subtracted from all dose averages, giving an amount of specific binding in all cases. The IC50 values for compounds of the invention determined by the Allfit program using percent displacement data. Allfit is a `basic` computer program for simultaneous curve fitting of a family of signoidal dose-response curves using the four parameter logistic equation.

[2] = test system: PAF-induced aggregation of human platelets; assay: Assay B: Human Platelet Aggregation Inhibition (PAF-induced aggregation in human platelet-rich plasma); assay type: cell-based; conditions: 37°
Description: Compounds of the invention were evaluated for their ability to inhibit PAF-induced aggregation of human platelets in a human-platelet-rich plasma. Venous blood was collected from donors who fasted for 8 hours and were instructed not to use antiinflammatory drugs for 2 weeks prior to blood draw. Blood was collected into syringes containing 0.1 ml of 3.8% [w/v] citrate and centrifuged in polypropylene tubes at 150xg for 20 minutes at room temperature. The platelet rich plasma [PRP] was collected and let sit for 20 minutes at room temperature. Platelet activating factor [PAF] was diluted in 0.9% NaCl with 0.25% bovine serum albumin. Silicon treated cuvettes with stir bars were placed in the 37° heating block of the platelet aggregometer [Bio/Data Corporation, Platelet Aggregation Profiler, Model PAP-4]. PRP and test compound were added to cuvettes and aggregation monitored for 10-15 seconds at 37° with stirring. PAF was added and aggregation monitored for an additional 3 minutes. Peak aggregation was considered the peak of the first aggregation wave usually 45-60 seconds after PAF addition. Inhibition of aggregation was determined by the following: 1-[(% aggregation in the presence of compound).div.(% maximal aggregation)]. A log/logit transformation was used to determine half maximal inhibitory concentration of a test compound [IC50 ].

[3] = target: T2, [^3 H]PAF receptors on human neutrophil membrane (Homo sapiens, UniProt P25105); assay: Assay C: Human Neutrophil Receptor Binding (inhibition of specific [^3 H]PAF binding to human neutrophil membrane); conditions: human neutrophil membranes, 0.9 nM [^3 H]PAF, 30 minutes at 24°, pH 7.4
T2 construct: Human neutrophils were isolated from venous blood by dextran sedimentation; from tissue; host or cells: human neutrophils from venous blood (membrane preparation)
Description: Compounds of the invention were evaluated for their ability to inhibit PAF-induced specific binding of [^3 H]PAF to receptors on human neutrophil membrane. Human neutrophils were isolated from venous blood by dextran sedimentation followed by density gradient centrifugation using Ficoll-Hypaque [J. Biol. Chem., 254:7865-7869, 1979]. Residual red blood cells were removed by hypotonic lysis. Neutrophils were suspended in 50 mM Tris-HCl buffer, pH 7.7, and cells disrupted by sonication for 15 seconds on ice. Unbroken cells and nuclei were removed by slow speed centrifugation [1000xg, 10 min. 4°]. The resultant supernatant was centrifuged at 100,000xg for 60 minutes at 4°. The pellet was suspended in 10 mM Tris-HCl, pH 7.4, with 10 mM MgCl2. Protein content was determined by the method of Lowry [J. Biol. Chem., 193:265-275, 1951]. Membranes were characterized for the concentration of binding sites [Bmax] and affinity for the ligand [Kd] using [^3 H]PAF by Scatchard analysis. Binding assays were conducted by incubating 50 mcg of membranes with 0.9 nM [^3 H]PAF and test compounds in 10 mM Tris-HCl buffer, pH 7.4, containing 0.1% bovine serum albumin. Nonspecific binding was determined by the addition of 1 μM PAF. Binding assay were done for 30 minutes at 24°. The assay was terminated by filtration-through a Whatman GF/C glass filters and radioactivity determined by liquid scintillation counting.

T1 sequence (P25105 whole entry): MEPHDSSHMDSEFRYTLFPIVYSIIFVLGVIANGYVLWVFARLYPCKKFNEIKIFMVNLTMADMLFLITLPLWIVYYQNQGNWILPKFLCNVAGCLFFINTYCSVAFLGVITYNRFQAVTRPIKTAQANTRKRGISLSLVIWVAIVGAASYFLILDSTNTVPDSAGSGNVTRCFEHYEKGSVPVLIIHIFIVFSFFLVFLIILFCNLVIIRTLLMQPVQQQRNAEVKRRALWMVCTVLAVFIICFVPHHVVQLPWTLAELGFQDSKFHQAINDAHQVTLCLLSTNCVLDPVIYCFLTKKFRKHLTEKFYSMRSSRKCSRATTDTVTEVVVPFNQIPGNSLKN
T2 sequence (P25105 whole entry): as above

SMILES	IC50 [1] [nM]	further results
COc1cc(C(=O)N(C2CCCC2)C2CCCC2)ccc1Cn1cnc2cccnc21 [Example 1]	1030	
COc1cc(C(=O)N(C2CCCC2)C2CCCC2)ccc1Cn1cnc2ncccc21 [Example 2, N, N-dicyclopentyl-4-(1H-imidazo[4,5-b]pyridin-1-ylmethyl)-3-methoxybenzamide]	78	IC50 [2]: 227 nM
COc1cc(Cn2cnc3cccnc32)ccc1C(=O)N(C(C)C)C1CCCCC1 [Example 3, N-cyclohexyl-4-(3H-imidazo[4,5-b]pyridin-3-ylmethyl)-2-methoxy-N-(1-methylethyl)benzamide]	2	IC50 [3]: 0.5 nM; IC50 [2]: 7 nM
COc1cc(Cn2cnc3ncccc32)ccc1C(=O)N(C(C)C)C1CCCCC1 [Example 4, N-cyclohexyl-4-(1H-imidazo[4,5-b]pyridin-1-ylmethyl)-2-methoxy-N-(1-methylethyl)benzamide]	150	
COc1cc(C(=O)N(C(C)C)C2CCCCC2)ccc1Cn1cnc2cccnc21 [Example 5, N-cyclohexyl-4-(3H-imidazo[4,5-b]pyridin-3-ylmethyl)-3-methoxy-N-(1-methylethyl)benzamide]	420	
COc1cc(C(=O)N(C(C)C)C2CCCCC2)ccc1Cn1cnc2ncccc21 [Example 6, N-cyclohexyl-4-(1H-imidazo[4,5-b]pyridin-1-ylmethyl)-3-methoxy-N-(1-methylethyl)benzamide]	6	IC50 [3]: 8 nM; IC50 [2]: 113 nM
COc1cc(Cn2cnc3cccnc32)ccc1C(=O)N(C1CCCC1)C1CC(C)CC(C)C1 (stereo not shown) [Example 7, N-cyclopentyl-N-(3,5-dimethylcyclohexyl)-4-(3H-imidazo[4,5-b]pyridin-3-ylmethyl)-2-methoxybenzamide]	73	
COc1cc(Cn2cnc3ncccc32)ccc1C(=O)N(C1CCCC1)C1CC(C)CC(C)C1 (stereo not shown) [Example 8, N-cyclopentyl-N-(3,5-dimethylcyclohexyl)-4-(1H-imidazo[4,5-b]pyridin-1-ylmethyl)-2-methoxybenzamide]	35	IC50 [3]: 23 nM; IC50 [2]: 7 nM
Cc1cc(C(=O)N(C2CCCCC2)C2CCCC2)ccc1Cn1cnc2ncccc21 [Example 9, N-cyclohexyl-N-cyclopentyl-4-(1H-imidazo[4,5-b]pyridin-1-ylmethyl)-3-methylbenzamide]	479	
Cc1cc(C(=O)N(C2CCCCC2)C2CCCC2)ccc1Cn1cnc2cccnc21 [Example 10, N-cyclohexyl-N-cyclopentyl-4-(3H-imidazo[4,5-b]pyridin-3-ylmethyl)-3-methylbenzamide]	5240	
COc1cc(C(=O)N(C(C)C)C2CCCCC2)ccc1Cn1c(C)nc2ncccc21 [Example 11, N-cyclohexyl-3-methoxy-N-(1-methylethyl)-4-[(2-methyl-1H-imidazo[4,5-b]pyridin-1-yl)methyl]benzamide]	9	
COc1cc(C(=O)N(C(C)C)C2CCCCC2)ccc1Cn1c(C)nc2cccnc21 [Example 12, N-cyclohexyl-3-methoxy-N-(1-methylethyl)-4-[(2-methyl-3H-imidazo [4,5-b]pyridin-3-yl)methyl]benzamide]	1160	
COc1cc(Cn2cnc3ncccc32)ccc1C(=O)N(C1CCCCC1)C1CCCC1 [Example 13, N-cyclohexyl-N-cyclopentyl-4-(1H-imidazo[4,5-b]pyridin-1-ylmethyl)-2-methoxybenzamide]	206	
COc1cc(C(=O)N(C(C)C)C2CCCCC2)ccc1Cn1c(-c2ccccc2Cl)nc2ncccc21 [Example 14, 4-[[2-(2-chlorophenyl)-1H-imidazo[4,5-b]pyridin-1-yl]methyl]-N-cyclohexyl-3-methoxy-N-(1-methylethyl)benzamide]	395	
COc1cc(C(=O)N(C(C)C)C2CCCCC2)ccc1Cn1c(-c2ccccc2Cl)nc2cccnc21 [Example 15, 4-[[2-(2-chlorophenyl) -3H-imidazo[4,5-b]pyridin-3yl]methyl]-N-cyclohexyl-3-methoxy-N-(1-methylethyl)benzamide]	574	
COc1cc(C(=O)N(C(C)C)C2CCCCC2)ccc1Cn1c(CO[Si](C)(C)C(C)(C)C)nc2ncccc21 [Example 16, N-cyclohexyl-4-[[2-[[[(1,1-dimethyethyl)dimethylsilyl]oxy]methyl]-1H-imidazo[4,5-b]pyridin-1-yl]methyl]-3-methoxy-N-(1-methylethyl)benzamide]	51	
COc1cc(C(=O)N(C(C)C)C2CCCCC2)ccc1Cn1c(CO)nc2ncccc21 [Example 17, N-cyclohexyl-4-[[2-(hydroxymethyl)-1H-imidazo [4,5-b]pyridin-1-yl]methyl]-3-methoxy-N-(1-methylethyl)benzamide]	6	
COc1cc(C(=O)N(C(C)C)C2CCCCC2)ccc1Cn1c(CO)nc2cccnc21 [Example 18, N-cyclohexyl-4-[[2-(hydroxymethyl)-3H-imidazo [4,5-b]pyridin-3-yl]methyl]-3-methoxy-N-(1-methylethyl)benzamide]	11	
COc1cc(C(=O)N(C(C)C)C2CCCCC2)ccc1Cn1c(CN(C)C)nc2ncccc21 [Example 19, N-cyclohexyl-4-[[2-[(dimethylamino)methyl]-1H-imidazo[4,5-b]pyridin-1-yl]methyl]-3-methoxy-N-(1-methylethyl)benzamide]	3	
COc1cc(C(=O)N(C(C)C)C2CCCCC2)ccc1Cn1c(CN(C)C)nc2cccnc21 [Example 20, N-cyclohexyl-4-[[2-[(dimethylamino)methyl]-3H-imidazo[4,5-b]pyridin-3-yl]methyl]-3-methoxy-N-(1-methylethyl)benzamide]	10	inhibition at 0.01 µM ([1]; at 10 nM, two-run average): 62%
COCc1nc2ncccc2n1Cc1ccc(C(=O)N(C(C)C)C2CCCCC2)cc1OC [Example 21, N-cyclohexyl-3-methoxy-4-[[2-(methoxymethyl)-1H-imidazo [4,5-b]pyridin-1-yl]methyl]-N-(1-methylethyl)benzamide]	9	
COCc1nc2cccnc2n1Cc1ccc(C(=O)N(C(C)C)C2CCCCC2)cc1OC [Example 22, N-cyclohexyl-3-methoxy-4-[[2-(methoxymethyl)-3H-imidazo[4,5-b]pyridin-3-yl]methyl]-N-(1-methylethyl)benzamide]	88	
COc1cc(C(=O)N(C(C)C)C2CCCCC2)ccc1Cn1c(N(C)C)nc2ncccc21 [Example 23, N-cyclohexyl-4-[[2-(dimethylamino)-1H-imidazo[4,5-b]pyridin-1-yl]methyl]-3-methoxy-N-(1-methylethyl)benzamide]	13	

Reference: patent US5359073A, “Substituted-phenyl (N,N'-cycloalkyl/alkyl carboxamide)-1H/3H-imidazo[4,5-b]pyridine compounds as PAF antagonists” (G. D. Searle & Co., priority 1992, dated 1994)
